Laboratory results from PMC10482691, “LTP induction by structural rather than enzymatic functions of CaMKII” (Nature, 2023).
“And” between values parts separate entries of the source, which are not always exact repeats. Equal entries are not always repeated.

Key:
[1] = system: GFP–CaMKII in rat hippocampal neurons; test: cLTP-induced CaMKII synaptic enrichment in dissociated hippocampal cultures (GFP–CaMKII WT); format: cell-based; conditions: for CaMKII synaptic enrichment: GFP-CaMKII WT, individual neurons, sheet 4e
[2] = system: GFP–paCaMKII F89G in hippocampal neurons; test: paCaMKII F89G photoactivation: synaptic enrichment in hippocampal neurons; format: cell-based
Description: Neurons were wrapped in aluminium foil immediately following transfection and only exposed to red light in imaging. One image was then taken of each neuron to serve as a pre-photoactivation baseline. Immediately following this baseline image, paCaMKII was globally photoactivated with a 405 nm laser pulse (100 ms exposure, 75% laser power) once every 10 s for a total of 60 s. Neurons were then imaged 15 min after stimulation and assessed for CaMKII synaptic enrichment and dendritic spine growth.
Neuronal cultures were transfected on DIV 15–18 and imaged 24–48 h later. […] Two-dimensional maximum-intensity projection images were then generated and analysed using a custom-build programme in ImageJ. The programme utilizes combinatorial thresholding to mask regions of the cell that contain high-intensity puncta of postsynaptic density protein 95 (PSD95; a marker of the post-synaptic side of excitatory synapses in dendritic spines) and regions of the dendritic shaft that contain no fluorescence intensity of PSD95. As a measure of synaptic enrichment, the ratio of mean CaMKII fluorescence intensity of the PSD95 mask to the mean CaMKII fluorescence intensity in the dendritic shaft mask is measured. Spine growth was assessed by measuring the changes in mCherry cell fill fluorescence intensity within dendritic spine divided by the initial fluorescence intensity (F/F0).

[3] = system: CA1 LTP in CaMKII F89G-expressing slices; test: LTP field recordings in slices of CaMKIIα KO mice injected with AAV-mScarlet-CaMKII-F89G; format: cell-based, mouse; conditions: for LTP time course, normalized response per slice (sheet 5d): individual slices, NM-PP1 vs Vehicle, in %
Description: Stereotactic injections were performed on P24 CaMKIIα KO mice. Animals were anesthetized with an intraperitoneal injection of 2,2,2-Tribromoethanol (250 mg kg^−1) and then head fixed to a stereotactic frame (David Kopf Instruments). AAVs (0.2–0.5 µl) were injected into intermediate CA1 at a rate of […] using a syringe pump (World Precision Instruments). Coordinates (in millimetres) were anterior–posterior: −3.17; mediolateral: ±3.45 (relative to Bregma); and dorsoventral: −2.5 (relative to pia). To confirm specificity of the injection site following LTP recordings, slices were fixed in 4% paraformaldehyde; then, they were coverslipped and imaged on an Olympus slide scanning microscope.
WT and mutant mouse hippocampal slices were prepared using P56–P70 mice. Isoflurane-anesthetized mice were rapidly decapitated, and the brain was dissected in an ice-cold high-sucrose solution containing 220 mM sucrose, 12 mM MgSO4, 10 mM glucose, 0.2 mM CaCl2, 0.5 mM KCl, 0.65 mM NaH2PO4, 13 mM NaHCO3 and 1.8 mM ascorbate. Transverse hippocampal slices (400 μm) were made using a tissue chopper (McIlwain) and transferred into 32 °C ACSF containing 124 mM NaCl, 3.5 mM KCl, 1.3 mM NaH2PO4, 26 mM NaHCO3, 10 mM glucose, 2 mM CaCl2, 1 mM MgSO4 and 1.8 mM ascorbate. All slices were recovered in 95% O2/5% CO2 for at least 1.5 h before experimentation.
For electrophysiological slice recording experiments, a glass micropipette (typical resistance of 0.4–0.8 megaohm when filled with ACSF) was used to record fEPSPs from the CA1 dendritic layer in response to stimulation of the Schaffer collaterals using a tungsten bipolar electrode. Slices were continually perfused with 30.5 °C ± 0.5 °C ACSF at a rate of 2.5 ± 0.5 ml min^−1 during recordings. Stimuli were delivered every 20 s, and three responses (1 min) were averaged for analysis. Data were analysed using WinLTP software with slope calculated as the initial rise from 10 to 60% of the response peak. Input–output curves were generated by increasing the stimulus intensity at a constant interval until a maximum response or population spike was noted to determine stimulation that elicits 50% of maximum slope. […] A stable baseline was acquired for a minimum of 20 min at 50% maximum slope before high-frequency stimulation (HFS; 2 × 100 Hz, 10 s interval) was applied. Responses were recorded for 40 or 60 min after HFS. Change in slope was calculated as a ratio of the average slope of the 20 min baseline (before HFS). Bar graphs of the percentage of fEPSP slope were calculated by averaging the last 10 min time points post-HFS and normalized to baseline.

Row | SMILES | effect on CaMKII movement to excitatory synapses in response to cLTP ([1]; AS283) | CaMKII movement after photoactivation of paCaMKII F89G ([2]; NM-PP1 10 μM) | synaptic enrichment after photoactivation (sheet 6e) ([2]; paCaMKII F89G + NM-PP1, individual neurons) | effect on LTP induction in CaMKII F89G slices ([3]; NM-PP1 10 μM) | LTP time course, normalized response per slice (sheet 5d) ([3]; Time (min) 0) | LTP time course, normalized response per slice (sheet 5d) ([3]; Time (min) 2.33333) | LTP time course, normalized response per slice (sheet 5d) ([3]; Time (min) 4.33333) | LTP time course, normalized response per slice (sheet 5d) ([3]; Time (min) 6.33333) | LTP time course, normalized response per slice (sheet 5d) ([3]; Time (min) -2) | LTP time course, normalized response per slice (sheet 5d) ([3]; Time (min) -4) | LTP time course, normalized response per slice (sheet 5d) ([3]; Time (min) -6) | CaMKII synaptic enrichment ([1]; NMPP1, before cLTP) | CaMKII synaptic enrichment ([1]; after cLTP in NMPP1)
1 | NCCNc1cccc(-c2ccnc3[nH]c4ccccc4c23)c1 [AS283] | did not interfere |  |  |  |  |  |  |  |  |  |  |  | 
2 | CC(C)(C)n1nc(Cc2cccc3ccccc23)c2c(N)ncnc21 [NM-PP1] |  | enabled similar movement | 1.231 and 1.446 and 1.136 and 1.385 and 1.127 and 1.67 and 1.6203 and 1.284 and 0.7763 and 1.224 and 1.168 and 1.296 and 1.013 and 0.919 and 1.131 and 1.135 and 1.776 | enabled | 103.829 and 96.437 and 102.744 and 120.959 and 123.914 and 192.297 and 144.344 and 104.217 and 103.642 and 100.747 and 103.258 and 105.141 and 101.674 and 96.3411 and 105.44 | 150.168 and 204.285 and 322.186 and 119.321 and 114.899 and 190.522 and 128.721 and 184.151 and 177.879 and 161.407 and 188.756 and 121.03 and 118.847 and 177.028 and 124.93 | 139.017 and 204.469 and 290.028 and 113.213 and 106.868 and 195.712 and 130.419 and 192.043 and 166.691 and 143.621 and 171.089 and 117.041 and 117.676 and 154.052 and 148.947 | 131.831 and 176.494 and 247.758 and 112.468 and 113.588 and 169.626 and 124.646 and 168.164 and 143.426 and 132.43 | 105.316 and 104.903 and 86.159 and 100.7 and 102.934 and 111.991 and 100.871 and 90.8613 and 108.408 and 99.877 and 100.511 and 99.326 and 97.9659 and 101.831 and 107.897 | 102.838 and 104.535 and 87.5747 and 99.3595 and 101.459 and 104.616 and 103.249 and 75.684 and 101.138 and 101.174 and 99.4129 and 111.767 and 97.478 and 110.855 and 98.9622 | 101.103 and 99.9338 and 95.867 and 99.0615 and 102.77 and 102.977 and 108.004 and 99.3605 and 103.117 and 97.9481 and 103.441 and 114.539 and 103.918 and 97.8041 and 96.1755 | 1.457 and 1.288 and 1.299 and 1.252 and 1.168 and 1.649 | 2.238 and 1.828 and 2.413 and 1.827 and 1.651 and 2.282
